Measured values: patent publication US20090061022A1, “Pharmaceutical composition comprising arsenite for the treatment of malignancy” (priority 2004, published 2009)

What was measured:
Test in all cases: Cytotoxic activity, propidium iodide fluorescence assay, panel of 9 human cancer cell lines
Type in all cases: cell-based
CCRF-CEM = CCRF-CEM leukemia, 3-7 days
Procedure: (§1) Three kinds of stock solutions were prepared for in vitro cytotoxic activity test. The first solution is DMSO (dimethyl sulfoxide) mixed with sodium meta-arsenite. […] The third solution is DMSO mixed with arsenic acid sodium salt. Those three solutions were diluted with culture medium (RPMI 1640). The final concentrations of DMSO in those three solutions are less than 0.3 vol %.
(§2) Nine kinds of human cancer cell lines out of six kinds of cancers were grown at 37° C. under a controlled atmosphere of 95% air and 5% CO2. The cells were grown on monolayer cultures of RPMI 1640 cell culture medium supplemented with 10% fetal calf serum.
(§3) The grown cells were harvested from exponential phase cultures by trypsinization and counted. The counted cells were placed in a plate, which has ninety six wells. Each well on the plate is in a shape of a flat-bottomed microtitre. Density of the cells in a suspension was adjusted depending on the cell line. The suspension was prepared by diluting the grown cells with the culture medium (RPMI 1640). Concentration of the cells were varied from 5×10^4 to 1×10^5 viable cells/ml. 100 μl of the suspension was placed in each well of the plate. […] Then add 50 μl of culture medium (RPMI 1640) only to 6 wells, 50 μl/well, among the 96 wells of one plate. It is called controlled. One well is filled with culture medium plus 5-FU. And another 50 μl of culture medium plus one of the stock solutions were added to each of the left 89 wells to allow cells to resume exponential growth.
(§4) The cytotoxic activity test was executed with three plates simultaneously to check reliability of the data obtained. The three plates contain the same samples of cancer cells. The three plates were then incubated for 3-7 days under the same controlled atmosphere and cell proliferation was assessed with a modified propodium iodide fluorescence assay. After thawing of the plates, fluorescence was measured using a Millipore Cytofluor 2350-microplate reader (excitation 530 nm emission 620 nm) in order to quantify the total cell number. The assay included untreated and positive controls containing 5-FU.
(§5) Growth inhibition is defined as (numbers of cancer cell alive) treated (T)/(number of cells) control (C)×100% (T/C %).

HT29 = HT29 colon cancer, 3-7 days
Procedure: as §1, §2, §3, §4, §5

LXFL 529L = LXFL 529L NSCLC, 3-7 days
Procedure: as §1, §2, §3, §4, §5

U937 = U937 lymphoma, 3-7 days
Procedure: as §1, §2, §3, §4, §5

UXF 1138 = UXF 1138 uterine body, 3-7 days
Procedure: as §1, §2, §3, §4, §5

K562 = K562 leukemia, 3-7 days
Procedure: as §1, §2, §3, §4, §5

RXF 944L = RXF 944L renal cancer, 3-7 days
Procedure: as §1, §2, §3, §4, §5

MEXF 514L = MEXF 514L melanoma, 3-7 days
Procedure: as §1, §2, §3, §4, §5

O=[As][O-].[Na+] [Sodium meta-arsenite, sodium meta-arsenite]
T/C % at drug concentration (CCRF-CEM; 1 μg/ml): 48% | T/C % at drug concentration (CCRF-CEM; 10 μg/ml): 43% | T/C % at drug concentration (CCRF-CEM; 100 μg/ml): 29% | T/C % at drug concentration (HT29; 1 μg/ml): 91% | T/C % at drug concentration (HT29; 3 μg/ml): 60% | T/C % at drug concentration (HT29; 10 μg/ml): 40% | T/C % at drug concentration (HT29; 30 μg/ml): 22% | T/C % at drug concentration (HT29; 100 μg/ml): 14% | T/C % at drug concentration (LXFL 529L; 1 μg/ml): 79% | T/C % at drug concentration (LXFL 529L; 3 μg/ml): 61% | T/C % at drug concentration (LXFL 529L; 10 μg/ml): 21% | T/C % at drug concentration (LXFL 529L; 30 μg/ml): 7% | T/C % at drug concentration (LXFL 529L; 100 μg/ml): 4% | T/C % at drug concentration (U937; 1 μg/ml): 3% | T/C % at drug concentration (U937; 3 μg/ml): 3% | T/C % at drug concentration (U937; 10 μg/ml): 2% | T/C % at drug concentration (U937; 30 μg/ml): 2% | T/C % at drug concentration (U937; 100 μg/ml): 1% | T/C % at drug concentration (UXF 1138; 1 μg/ml): 107% | T/C % at drug concentration (UXF 1138; 3 μg/ml): 114% | T/C % at drug concentration (UXF 1138; 10 μg/ml): 103% | T/C % at drug concentration (UXF 1138; 30 μg/ml): 95% | T/C % at drug concentration (UXF 1138; 100 μg/ml): 30% | T/C % at drug concentration (K562; 1 μg/ml): 51% | T/C % at drug concentration (K562; 3 μg/ml): 15% | T/C % at drug concentration (K562; 10 μg/ml): 15% | T/C % at drug concentration (K562; 30 μg/ml): 18% | T/C % at drug concentration (K562; 100 μg/ml): 13% | T/C % at drug concentration (RXF 944L; 1 μg/ml): 124% | T/C % at drug concentration (RXF 944L; 3 μg/ml): 79% | T/C % at drug concentration (RXF 944L; 10 μg/ml): 57% | T/C % at drug concentration (RXF 944L; 30 μg/ml): 32% | T/C % at drug concentration (RXF 944L; 100 μg/ml): 9% | T/C % at drug concentration (MEXF 514L; 1 μg/ml): 120% | T/C % at drug concentration (MEXF 514L; 3 μg/ml): 95% | T/C % at drug concentration (MEXF 514L; 10 μg/ml): 98% | T/C % at drug concentration (MEXF 514L; 30 μg/ml): 70% | T/C % at drug concentration (MEXF 514L; 100 μg/ml): 21%
